Oligonucleotides are written 5' to 3', each unit as a sugar letter and its base; * is a phosphorothioate linkage, no mark a phosphodiester; rarer units and linkages stand in square brackets, end groups in braces. Plain capitals give the bases only. d = 2'-deoxy (DNA); {P} = phosphate
Tested on: Cloudman S91 mouse melanoma cells
Assay: Melanin content of Cloudman S91 melanoma cells
Format: cell-based
Settings: for melanogenesis: 100 μM dinucleotides or 40 μM 11mers, 6 days; for melanin content relative to control diluent-treated cells: 10 μM, five days, FIG. 17; for pigment content increase, of control levels: 100 μM, three experiments; for pigment content increase, of control levels / melanin content, of control cells / increase in melanin / reduction of melanogenic activity by removal of the 5′ phosphate: 5 days; for melanin content, of control cells: FIG. 12; for increase in melanin: FIG. 15; for reduction of melanogenic activity by removal of the 5′ phosphate: FIG. 16
Procedure: The induction of melanogenesis in Cloudman S91 mouse melanoma cells by a five-nucleotide oligomer CATAC (SEQ ID NO: 6) and a nine-nucleotide oligomer, GAGTATGAG (SEQ ID NO: 1) was examined. Duplicates of Cloudman S91 murine melanoma cells were incubated with either 100 μM oligo or an equal volume of diluent (H2O) for 5 days. The cells were then collected, counted, and an equal number of cells were pelleted for melanin analysis. […] Variations of this oligonucleotide were evaluated: a scrambled 9-mer (TAGGAGGAT; SEQ ID NO: 2) and two truncated versions, a 7-mer (AGTATGA; SEQ ID NO: 3) and second 5-mer (GTATG; SEQ ID NO: 4). […] The truncated versions (SEQ ID NOs: 3 and 4) were also active, inducing 640% and 670% increases, respectively.
Cultures of Cloudman S91 murine melanoma cells were treated for 5 days with SEQ ID NO: 1, SEQ ID NO: 6, pTpT as a positive control, or an equal volume of diluent as a negative control. […] SEQ ID NO: 6 produced a slight increase in melanin, to 165+/−77% of control levels. SEQ ID NO: 1 stimulated melanin content to an average of 600+/−260% of control levels.
pTpT, shown previously to stimulate pigmentation in these cells, was used as a reference treatment, and diluent alone was used as a negative control. After five days of treatment with the oligonucleotides, the cells were collected, counted, and an equal number of cells were pelleted for melanin analysis. […] SEQ ID NO: 5, representing the telomere over-hang sequence, also at 10 μM, increased the melanin level to 10 times that of control cells.
S91 cells were cultured in the presence of diluent alone, pTpT p9mer (SEQ ID NO: 1), p7mer (AGTATGA; SEQ ID NO: 7) or p5mer #2 (SEQ ID NO: 4). […] Both SEQ ID NOS: 4 and 7 stimulated a 7–8 fold increase in melanin.
S91 cells were cultured for 5 days in the presence of the thymidine dinucleotides or SEQ ID NO: 1 with or without a 5′ phosphate or diluent alone as a negative control.
Cultures of S91 mouse melanoma cells (100,000 cells/38 cm^2) were treated with 100 μM pTpT or phosphorothioate pTpT (pTspT) (FIG. 22) or 40 μM 11mer-1 or the phosphorothioate 11mer-1 (11mer-1-S) (FIG. 23) for 6 days and were then collected, counted and assayed for melanin content.
Duplicate cultures of S91 cells (100,000 cells/39 cm^2) were either sham-irradiated or irradiated with 5 mJ/cm^2 solar-simulated light from a 1 kW xenon arc solar-simulator (XMN 1000-21, Optical Radiation, Azuza, Calif.) metered at […] using a research radiometer (model IL1700A, International Light, Newburyport, Mass.). Two sham-irradiated plates were then supplemented with 100 μM pTspT and two irradiated cultures were similarly treated with pTspT. After one week, cells were collected, counted and analyzed for melanin content by dissolving the cell pellets in 1 N NaOH and measuring the optical density at […]. […] However, this response was blocked by the addition of pTspT (FIG. 24). In addition, the constitutive pigmentation of these cells was reduced by the pTspT in the sham-irradiated cultures, similar to the data presented in FIGS. 22 and 23.

| Substance | melanogenesis | constitutive pigmentation (100 μM pTspT or 40 μM 11mer-1-S, 6 days or one week) | melanin content relative to control diluent-treated cells | pigment content increase, of control levels | melanin content, of control cells | increase in melanin | reduction of melanogenic activity by removal of the 5′ phosphate [%] | increase in melanin content (variations of the 9-mer, cells not given) [%] |
| --- | --- | --- | --- | --- | --- | --- | --- | --- |
| 11mer-1-S: phosphorothioate 11mer-1 (dG*dT*dT*dA*dG*dG*dG*dT*dT*dA*dG; further chemistry not fully specified) | did not | reduced the constitutive pigmentation |  |  |  |  |  |  |
| pCTAACCCTAAC (DNA, 5' {P}, backbone not given here) [SEQ ID NO: 9, reference compound] |  |  | did not produce significant change in pigment content |  |  |  |  |  |
| pGAGTATGAG (DNA, 5' {P}, backbone not given here) [SEQ ID NO: 1] |  |  |  | 418%±267% | 600+/−260% | a larger increase | 60 | 800 |
| pGATCGATCGAT (DNA {P}-dGdAdTdCdGdAdTdCdGdAdT) [SEQ ID NO: 10, reference compound] |  |  | did not produce significant change in pigment content |  |  |  |  |  |
| pGTTAGGGTTAG (DNA {P}-dGdTdTdAdGdGdGdTdTdAdG) [SEQ ID NO: 5] | stimulated melanogenesis |  | 10 times that of control |  |  |  |  |  |
| thymidine dinucleotide [pTpT] | stimulated melanogenesis |  | 3 times that of control | 155%±60% | 255+/−60% | moderate increase in melanin content | 80 |  |
